Experimental data: PubChem BioAssay (NCI)
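Assay format: 96-well plates, 48-hour exposure. GI50 is the concentration that inhibits growth by half. TGI: concentration producing complete growth inhibition.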

What was measured:
Assay in all cases: NCI tumour cell line growth inhibition, 48 h
CAKI-1 renal = tested on: CAKI-1 renal
HCT-116 colon = tested on: HCT-116 colon
IGROV1 ovarian = tested on: IGROV1 ovarian
NCI-H460 lung = tested on: NCI-H460 lung
OVCAR-3 ovarian = tested on: OVCAR-3 ovarian
RPMI-8226 leukemia = tested on: RPMI-8226 leukemia
SF-295 CNS = tested on: SF-295 CNS
SNB-75 CNS = tested on: SNB-75 CNS
UACC-62 melanoma = tested on: UACC-62 melanoma
NCI-H522 lung = tested on: NCI-H522 lung

## N#Cc1c(NC(=S)NC(=O)c2ccccc2)nc2c(c1-c1ccccc1)CCCC2
CAKI-1 renal
  TGI: > 100 µM
HCT-116 colon
  TGI: > 100 µM
IGROV1 ovarian
  TGI: > 100 µM
NCI-H460 lung
  TGI: > 100 µM
OVCAR-3 ovarian
  TGI: > 100 µM
RPMI-8226 leukemia
  TGI: > 100 µM
SF-295 CNS
  TGI: > 100 µM
SNB-75 CNS
  TGI: 41.5 µM
UACC-62 melanoma
  TGI: > 100 µM

## CCC(C)C(=O)c1c(O)c(C/C=C(\C)CCC=C(C)C)c(O)c2c(C(O)CC)cc(=O)oc12 (stereo not drawn)
CAKI-1 renal
  TGI: 12.1 µM
HCT-116 colon
  TGI: 2.21 µM
IGROV1 ovarian
  TGI: 13.6 µM
NCI-H460 lung
  TGI: 7.23 µM
NCI-H522 lung
  TGI: 5.73 µM
OVCAR-3 ovarian
  TGI: 12.6 µM
RPMI-8226 leukemia
  TGI: 3.51 µM
SF-295 CNS
  TGI: 7.82 µM
SNB-75 CNS
  TGI: 5.84 µM
UACC-62 melanoma
  TGI: 5.15 µM

## Brc1ccccc1-c1ncc(-c2ccccc2)o1
CAKI-1 renal
  TGI: > 100 µM
HCT-116 colon
  TGI: > 100 µM
IGROV1 ovarian
  TGI: 78.7 µM
NCI-H460 lung
  TGI: > 100 µM
NCI-H522 lung
  TGI: 49.9 µM
OVCAR-3 ovarian
  TGI: 89.6 µM
RPMI-8226 leukemia
  TGI: 48.8 µM
SF-295 CNS
  TGI: > 100 µM
SNB-75 CNS
  TGI: 59.7 µM
UACC-62 melanoma
  TGI: > 100 µM

## O=[N+]([O-])c1cn[n+]([O-])c2ccccc12
CAKI-1 renal
  TGI: 8.1 µM
HCT-116 colon
  TGI: 2.62 µM
NCI-H460 lung
  TGI: 24.5 µM
OVCAR-3 ovarian
  TGI: 7.28 µM
RPMI-8226 leukemia
  TGI: 7.37 µM
SF-295 CNS
  TGI: 17.6 µM

## CC[n+]1c(/C=C/c2ccc(N(CCCl)CCCl)cc2)ccc2cc(NC(=O)/C=C/c3ccccc3)ccc21
CAKI-1 renal
  TGI: 19.2 µM
HCT-116 colon
  TGI: 1.34 µM
IGROV1 ovarian
  TGI: 1.86 µM
NCI-H460 lung
  TGI: 1.36 µM
NCI-H522 lung
  TGI: 1.17 µM
OVCAR-3 ovarian
  TGI: 11.4 µM
RPMI-8226 leukemia
  TGI: 0.696 µM
SF-295 CNS
  TGI: 7.81 µM
SNB-75 CNS
  TGI: 1.05 µM
UACC-62 melanoma
  TGI: 2.28 µM

## COc1cc(C2c3cc4c(cc3[C@@H](Nc3cccc(C(C)=O)c3)C3COC(=O)[C@H]23)OCO4)cc(OC)c1O (stereo partly drawn)
CAKI-1 renal
  TGI: 2.13 µM
HCT-116 colon
  TGI: 7.81 µM
IGROV1 ovarian
  TGI: 24.6 µM
NCI-H460 lung
  TGI: 1.07 µM
NCI-H522 lung
  TGI: 5.77 µM
OVCAR-3 ovarian
  TGI: 13.9 µM
RPMI-8226 leukemia
  TGI: 2.21 µM
SF-295 CNS
  TGI: 1.39 µM
UACC-62 melanoma
  TGI: 4.67 µM

## Cn1c(-c2ccc(/C=N\N3CCN(/N=C/c4ccc(-c5c[n+]6ccccc6n5C)cc4)CC3)cc2)c[n+]2ccccc12
CAKI-1 renal
  TGI: > 100 µM
HCT-116 colon
  TGI: > 100 µM
IGROV1 ovarian
  TGI: > 100 µM
NCI-H460 lung
  TGI: > 100 µM
NCI-H522 lung
  TGI: > 100 µM
OVCAR-3 ovarian
  TGI: > 100 µM
RPMI-8226 leukemia
  TGI: > 100 µM
SF-295 CNS
  TGI: 78.6 µM
SNB-75 CNS
  TGI: > 100 µM
UACC-62 melanoma
  TGI: > 100 µM

## COc1ccc(-c2cc(N3CCN(c4ccccc4)CC3)c(C#N)c(=O)o2)cc1
CAKI-1 renal
  TGI: 53.9 µM
HCT-116 colon
  TGI: > 100 µM
IGROV1 ovarian
  TGI: > 100 µM
NCI-H460 lung
  TGI: > 100 µM
RPMI-8226 leukemia
  TGI: > 100 µM
SF-295 CNS
  TGI: 59.5 µM
SNB-75 CNS
  TGI: 31.7 µM

## COc1ccc(NC(=O)/C(=C/c2ccc(N(CCC#N)CCC#N)cc2)NC(=O)c2cc([N+](=O)[O-])ccc2Cl)cc1
CAKI-1 renal
  TGI: > 100 µM
HCT-116 colon
  TGI: > 100 µM
IGROV1 ovarian
  TGI: > 100 µM
NCI-H522 lung
  TGI: > 100 µM
OVCAR-3 ovarian
  TGI: > 100 µM
RPMI-8226 leukemia
  TGI: > 100 µM
SF-295 CNS
  TGI: 73.2 µM
UACC-62 melanoma
  TGI: > 100 µM

## COc1ccc(NC(=O)/C(CC2=Nc3ccc([N+](=O)[O-])cc3NC2O)=N\NC(=O)C[N+](C)(C)C)c(OC)c1 (stereo not drawn)
CAKI-1 renal
  TGI: > 100 µM
HCT-116 colon
  TGI: > 100 µM
IGROV1 ovarian
  TGI: > 100 µM
NCI-H460 lung
  TGI: > 100 µM
NCI-H522 lung
  TGI: > 100 µM
OVCAR-3 ovarian
  TGI: > 100 µM
SF-295 CNS
  TGI: > 100 µM
SNB-75 CNS
  TGI: > 100 µM
UACC-62 melanoma
  TGI: > 100 µM

## NCc1ccc(C(=O)O)cc1
CAKI-1 renal
  TGI: > 100 µM
HCT-116 colon
  TGI: > 100 µM
IGROV1 ovarian
  TGI: > 100 µM
NCI-H460 lung
  TGI: > 100 µM
NCI-H522 lung
  TGI: > 100 µM
OVCAR-3 ovarian
  TGI: > 100 µM
SF-295 CNS
  TGI: > 100 µM
UACC-62 melanoma
  TGI: > 100 µM

## Cc1nc2ccccc2c(=O)[nH]1
HCT-116 colon
  TGI: > 100 µM
IGROV1 ovarian
  TGI: > 100 µM
NCI-H460 lung
  TGI: > 100 µM
NCI-H522 lung
  TGI: > 100 µM
OVCAR-3 ovarian
  TGI: > 100 µM
RPMI-8226 leukemia
  TGI: > 100 µM
SF-295 CNS
  TGI: > 100 µM
SNB-75 CNS
  TGI: > 100 µM
UACC-62 melanoma
  TGI: > 100 µM

## ClCc1c(Cl)c(Cl)c(Cl)c(CCl)c1Cl
CAKI-1 renal
  GI50: 1.68 µM
  TGI: 3.1 µM
HCT-116 colon
  GI50: 1.71 µM
  TGI: 3.17 µM
IGROV1 ovarian
  GI50: 1.97 µM
  TGI: 4.19 µM
NCI-H460 lung
  GI50: 1.79 µM
  TGI: 3.39 µM
NCI-H522 lung
  GI50: 1.51 µM
  TGI: 3.12 µM
OVCAR-3 ovarian
  GI50: 1.86 µM
  TGI: 3.26 µM
RPMI-8226 leukemia
  GI50: 1.86 µM
  TGI: 4.24 µM
SF-295 CNS
  GI50: 9.07 µM
  TGI: 27.7 µM
SNB-75 CNS
  GI50: 2.15 µM
  TGI: 7.73 µM
UACC-62 melanoma
  GI50: 1.61 µM
  TGI: 3.13 µM

## NCc1ccccc1C1CSCSC1
HCT-116 colon
  TGI: > 100 µM
NCI-H460 lung
  TGI: > 100 µM
NCI-H522 lung
  TGI: > 100 µM
OVCAR-3 ovarian
  TGI: > 100 µM
SF-295 CNS
  TGI: > 100 µM
SNB-75 CNS
  TGI: > 100 µM
UACC-62 melanoma
  TGI: > 100 µM

## Cc1ccc(S(N)(=O)=O)cc1
HCT-116 colon
  TGI: > 1000 µM
IGROV1 ovarian
  TGI: > 1000 µM
NCI-H460 lung
  TGI: > 1000 µM
NCI-H522 lung
  TGI: > 1000 µM
OVCAR-3 ovarian
  TGI: > 1000 µM
RPMI-8226 leukemia
  TGI: > 1000 µM
SF-295 CNS
  TGI: > 1000 µM
UACC-62 melanoma
  TGI: > 1000 µM

## CCO/N=[N+](\[O-])N(CC)CC
CAKI-1 renal
  TGI: > 100 µM
HCT-116 colon
  TGI: > 100 µM
IGROV1 ovarian
  TGI: > 100 µM
NCI-H460 lung
  TGI: > 100 µM
NCI-H522 lung
  TGI: > 100 µM
OVCAR-3 ovarian
  TGI: > 100 µM
SF-295 CNS
  TGI: > 100 µM
UACC-62 melanoma
  TGI: > 100 µM

## CC(C)C[P+](c1ccccc1)(c1ccccc1)c1ccccc1
CAKI-1 renal
  TGI: 37.8 µM
HCT-116 colon
  TGI: > 100 µM
IGROV1 ovarian
  TGI: > 100 µM
NCI-H460 lung
  TGI: > 100 µM
NCI-H522 lung
  TGI: > 100 µM
OVCAR-3 ovarian
  TGI: 84.6 µM
RPMI-8226 leukemia
  TGI: 0.033 µM
SF-295 CNS
  TGI: 90.5 µM
SNB-75 CNS
  TGI: > 100 µM
UACC-62 melanoma
  TGI: > 100 µM

## CC(C)(Br)C1(O)CCCN1C(=O)c1ccccc1 (stereo not drawn)
HCT-116 colon
  TGI: > 100 µM
IGROV1 ovarian
  TGI: > 100 µM
NCI-H460 lung
  TGI: > 100 µM
NCI-H522 lung
  TGI: > 100 µM
OVCAR-3 ovarian
  TGI: > 100 µM
SF-295 CNS
  TGI: > 100 µM
SNB-75 CNS
  TGI: > 100 µM
UACC-62 melanoma
  TGI: > 100 µM

## CCOC(=O)/C=C(\C)c1ccc(OC)cc1
CAKI-1 renal
  TGI: > 100 µM
HCT-116 colon
  TGI: > 100 µM
IGROV1 ovarian
  TGI: > 100 µM
NCI-H460 lung
  TGI: > 100 µM
RPMI-8226 leukemia
  TGI: > 100 µM
SF-295 CNS
  TGI: > 100 µM
SNB-75 CNS
  TGI: > 100 µM
